Assay results as given in US7572635B2, “Method for agrobacterium transformation for dihaploid corn plants” (Monsanto Technology LLC, priority 2004, dated 2009).

Legend:
plant tissues = assay: Regenerability of plant tissues exposed to colchicine (own experiments); assay type: cell-based; conditions: levels of colchicine below levels used for chromosome doubling
Text: The ability to produce dihaploid transformed plants without the use of an added chromosome doubling agent is a huge advantage. Chromosome doubling agents tend to be highly toxic chemicals because they are antimicrotubule agents. Also, when using chromosome doubling agents to produce dihaploids from haploids some tetraploids are formed as well. Also, optimization of the chromosome doubling agent is detrimental to the production of transformants in the transformation process.

R0 plants = assay: Comparison of doubling with and without colchicine: ploidy number of R0 plants; assay type: in vivo, corn
Text: Comparison of Doubling with and without Colchicine
This is about a 3-fold increase in the amount of doubling. The doubling from the Agrobacterium-mediated transformation process is about as efficient as a very low level of colchicine (50%), but not as effective as a more typical amount (83%).

COc1cc2c(c(OC)c1OC)-c1ccc(OC)c(=O)cc1[C@@H](NC(C)=O)CC2 [colchicine]
regenerability of plant tissues (plant tissues): greatly diminish the regenerability of plant tissues | % diploid (R0 plants; no transformation + 0.01% colchicine + plant regeneration (very low level of colchicine)): 50% | % diploid (R0 plants; no transformation + 0.025% colchicine + plant regeneration (more typical amount used for doubling)): 83%
